Laboratory results taken from US12365687B2 (Hoffmann-La Roche Inc., priority 2021, dated 2025).
pKi: −log10 of the molar value. Where two headings read alike, the source gives them in different places.

Columns and labels:
[1] = molecular target: human GABAA α2β2γ1 receptor (Homo sapiens (Human), UniProt P47869+Q8N1C3); test: Radioligand binding assay for γ1-containing GABAA subtypes, [3H]RO7239181 competition (α2β2γ1)
Procedure: (§1) The affinity of compounds at GABAA γ1 subunit-containing receptors was measured by competition for [^3H]RO7239181 (67.3 Ci/mmol; Roche) binding to membranes from HEK293F cells (ThermoFisher R79007) expressing human (transiently transfected) receptors of composition α5β2γ1, α2β2γ1, α1β2γ1.
(§2) Harvested pellets from HEK293F cells expressing the different GABAA receptor subtypes were resuspended in Mannitol Buffer pH 7.2-7.4 (Mannitol 0.29 M, Triethylamine 10 mM, Acetic acid 10 mM, EDTA 1 mM plus protease inhibitors (20 tablets Complete, Roche Diagnostics Cat. No. 05 056 489 001 per liter)), washed two times and then resuspended at 1:10 to 1:15 dilution in the same buffer. Cell disruption was performed by stirring the suspension in a Parr vessel #4637 at 435 psi for 15 minutes, and then the suspensions were centrifuged at 1000×g for 15 minutes at 4° C. (Beckman Avanti J-HC; rotor JS-4.2). The supernatant (S1) was transferred in a 2 l Schott flask and the pellet (P1) was resuspended with Mannitol Buffer up to 175 ml. The resuspended pellet was transferred into a 250 ml Corning centrifugal beaker and centrifuged at 1500×g for 10 minutes at 4° C. (Beckman Avanti J-HC; rotor JS-4.2). The supernatant (S1) was then transferred in the 2 l Schott flask and the pellet was discarded. The supernatants (S1) were centrifuged in 500 ml Beckman polypropylene centrifugal beaker at 15′000×g for 30 minutes at 4° C. (Beckman Avanti J-20 XP; rotor JLA-10.500). The pellet (P2) was resuspended with Mannitol Buffer 1:1 and frozen at −80° C. The supernatant (S2) was centrifuged in 100 ml Beckman polypropylene centrifugal tubes at 48000×g for 50 minutes at 4° C. (Beckman Avanti J-20 XP; rotor JA-18). The supernatant (S3) was discarded and the pellet (P3) was resuspended with 1:1 Mannitol Buffer. The P2 and P3 protein concentration was determined with the BIORAD Standard assay method with bovine serum albumin as standard and measured on the NANO-Drop 1000. The membrane suspension was aliquots (500 μl per tube) and stored at −80° C. until required.
(§3) Membrane homogenates were resuspended and polytronised (Polytron PT1200E Kinematica AG) in Potassium Phosphate 10 mM, KCl 100 mM binding buffer at pH 7.4 to a final assay concentration determined with a previous experiment.
(§4) Assays were incubated to equilibrium for 1 hour at 4° C. and then, membranes were filtered onto unifilter (96-well white microplate with bonded GF/C filters preincubated 20-50 minutes in 0.3% Polyethylenimine) with a Filtermate 196 harvester (Packard BioScience) and washed 4 times with cold Potassium Phosphate 10 mM pH 7.4, KCl 100 mM binding buffer. After anhydrousing, filter-retained radioactivity was detected by liquid scintillation counting. Ki values were calculated using Excel-Fit (Microsoft) and are the means of two determinations.

[2] = molecular target: human GABAA α1β3γ2 receptor (Homo sapiens (Human), UniProt P14867+P18507); test: Radioligand binding assay for γ2-containing GABAA subtypes, [3H]Flumazenil competition (α1β3γ2); conditions: for γ2/γ1 Selectivity Ratio: Ki α1β3γ2 (nM)/Ki α2β2γ1 (nM); for LogSel: Log[Ki α1β3γ2 (nM)/Ki α2β2γ1 (nM)]
Procedure: The affinity of compounds at GABAA γ2 subunit-containing receptors was measured by competition for [^3H]Flumazenil (81.1 Ci/mmol; Roche) binding to HEK293F cells expressing human (transiently transfected) receptors of composition α1β3γ2.
Harvested pellets from HEK293F cells expressing the different GABAA γ2 receptor subtypes were resuspended in Mannitol Buffer pH 7.2-7.4 and processed as described above for the cells expressing the GABAA γ1 subunit-containing receptors.
Assays were incubated to equilibrium for 1 hour at 4° C. and harvested onto GF/C uni-filters (Packard) by filtration using a Packard harvester and washing with ice-cold wash buffer (50 mM Tris; pH 7.5). After anhydrousing, filter-retained radioactivity was detected by liquid scintillation counting. Ki values were calculated using Excel-Fit (Microsoft) and are the means of two determinations.

[3] = molecular target: human GABAA α5β2γ1 receptor (Homo sapiens (Human), UniProt P31644+Q8N1C3); test: Radioligand binding assay for γ1-containing GABAA subtypes, [3H]RO7239181 competition (α5β2γ1)
Procedure: as §1, §2, §3, §4

[4] = molecular target: α2β2γ1 GABAA receptor subtype (Homo sapiens (Human), UniProt P47869+Q8N1C3); test: Two-electrode voltage clamp electrophysiology in Xenopus oocytes expressing GABAA receptors (modulation of GABA EC20 current); type: cell-based; conditions: for Efficacy (GABA)%: % modulation of GABA EC20 = 100*(Fold increase-1), α2β2γ1 oocytes, compound at approx. 30-fold Ki; for Fold increase h-GABA-A α2β2γ1 oocyte @ 30-fold Ki: Xenopus oocytes expressing α2β2γ1, compound at approx. 30-fold its Ki α2β2γ1, GABA EC20 current
Procedure: Xenopus laevis oocytes at maturation stages V-VI were used for the expression of cloned mRNA encoding GABAA receptor subunits. Oocytes ready for RNA micro-injection were bought from Ecocyte, Castrop-Rauxel, Germany and stored in modified Barth's medium (composition in mM: NaCl 88, KCl 1, NaHCO3 2.4, HEPES 10, MgSO4 0.82, CaNO3 0.33, CaCl2 0.33, pH=7.5) at 20° C. until the experiment.
Oocytes were plated in 96-well plates for microinjection using the Roboinject automated instrument (MultiChannelSystems, Reutlingen, Germany). Approximately 50 nL of an aqueous solution containing the RNA transcripts for the subunits of the desired GABAA receptor subtype was injected into each oocyte. […] Oocytes were kept in modified Barth's medium (composition in mM: NaCl 88, KCl 1, NaHCO3 […], HEPES 10, MgSO4 0.82, CaNO3 0.33, CaCl2 0.33, pH=7.5) at 20° C. until the experiment.
Electrophysiological experiments were performed using the Roboocyte instrument (MultiChannelSystems, Reutlingen, Germany) on days 3 to 5 after the micro-injection of mRNA. During the experiment the oocytes were constantly superfused by a solution containing (in mM) NaCl 90, KCl 1, HEPES 5, MgCl2 1, CaCl2 1 (pH 7.4). Oocytes were impaled by two glass microelectrodes (resistance: 0.5-0.8 MΩ) which were filled with a solution containing KCl 1M+K-acetate 1.5 M and voltage-clamped to −80 mV. The recordings were performed at room temperature using the Roboocyte two-electrode voltage clamp system (Multichannelsystem). After an initial equilibration period of 1.5 min GABA was added for 1.5 min at a concentration evoking approximately 20% of a maximal current response (EC20). After another rest interval of 2.5 min GABA was again added evoking a response of similar amplitude and shape. […] Current traces were recorded at a digitization rate of 10 Hz during and shortly before and after the GABA application.
Each compound and concentration was tested on at least 3 oocytes. Different oocytes were used for different compound concentrations.
For the analysis, the digitized current traces of the first and second GABA response were superimposed and, if necessary, rescaled to equal maximal amplitudes. The ratio between the two responses during the time interval of test compound application was calculated point by point. The extremum of the resulting “ratio trace” was taken as the efficacy (“Fold increase”) of the compound expressed as “% modulation of GABA EC20” (100*(Fold increase-1)).

[5] = Ki h-GABAA α2β2γ1, [3H]RO7239181 competition binding, human GABAA α2β2γ1
[6] = Ki h-GABAA α2β2γ1, displacement of [3H]RO7239181, membranes of HEK293F cells expressing human receptors, means of two determinations

SMILES | pKi [1, 5] | pKi [1, 6] | pKi [2] | γ2/γ1 Selectivity Ratio [2] | LogSel [2] | pKi [3] | Efficacy (GABA)% [4] | Fold increase h-GABA-A α2β2γ1 oocyte @ 30-fold Ki [4] | pKi ([1]; Ki h-GABAA α2β2γ1, Table 3, reference compounds) | γ2/γ1 Selectivity Ratio ([2]; Table 3) | LogSel ([2]; Table 3) | pKi ([2]; read-out: Ki h-GABAA α1β3γ2, Table 3, reference compounds)
C[C@@H]1N=C(c2c(F)cccc2F)c2c(ccc(Cl)c2Cl)-n2nc(CO)nc21 [Example 13, [(4S)-7,8-dichloro-6-(2,6-difluorophenyl)-4-methyl-4H-[1,2,4]triazolo[1,5-a][1,4]benzodiazepin-2-yl]methanol] | 8.59 | 8.59 | 6.43 | 142.7 | 2.15 | 9.22 | 59% | 1.59 |  |  |  | 
C[C@@H]1N=C(c2c(F)cccc2F)c2c(ccc(Cl)c2Cl)-n2nc(N3CC(O)C3)nc21 [Example 66, 1-[(4S)-7,8-dichloro-6-(2,6-difluorophenyl)-4-methyl-4H-[1,2,4]triazolo[1,5-a][1,4]benzodiazepin-2-yl]azetidin-3-ol] | 8.21 | 8.21 | 6.62 | 39.7 | 1.60 | 8.91 | 58% | 1.58 |  |  |  | 
C[C@@H]1N=C(c2ncccc2F)c2c(ccc(C(F)(F)F)c2Cl)-n2nc(C(=O)N3CC(C(F)F)C3)nc21 [Example 142, [(4S)-7-chloro-6-(3-fluoro-2-pyridyl)-4-methyl-8-(trifluoromethyl)-4H-[1,2,4]triazolo[1,5-a][1,4]benzodiazepin-2-yl]-[3-(difluoromethyl)azetidin-1-yl]methanone] | 7.40 | 7.40 | < 4.52 | 756.0 | 2.88 | 8.09 | 123% | 2.23 |  |  |  | 
CN(C)C(=O)c1nc2n(n1)-c1ccc(Cl)c(Cl)c1C(c1c(F)cccc1F)=NC2 [Example 9, 7,8-dichloro-6-(2,6-difluorophenyl)-N,N-dimethyl-4H-[1,2,4]triazolo[1,5-a][1,4]benzodiazepine-2-carboxamide] | 8.26 | 8.26 | 6.00 | 179.8 | 2.25 | 8.94 | 123% | 2.23 | 8.26 | 179.8 | 2.25 | 6.00
C[C@@H]1N=C(c2c(F)cccc2F)c2c(ccc(C(F)(F)F)c2Cl)-n2c(CO)cnc21 [Example 132, [(4S)-7-chloro-6-(2,6-difluorophenyl)-4-methyl-8-(trifluoromethyl)-4H-imidazo[1,2-a][1,4]benzodiazepin-1-yl]methanol] | 7.47 | 7.47 | 5.59 | 75.8 | 1.88 | 8.58 | 105% | 2.05 |  |  |  | 
C[C@@H]1N=C(c2c(F)cccc2F)c2c(ccc(Cl)c2Cl)-n2nc(N3CCCC3=O)nc21 [Example 50, 1-[(4S)-7,8-dichloro-6-(2,6-difluorophenyl)-4-methyl-4H-[1,2,4]triazolo[1,5-a][1,4]benzodiazepin-2-yl]pyrrolidin-2-one] | 8.35 | 8.35 | 6.43 | 83.5 | 1.92 | 9.05 | 60% | 1.60 |  |  |  | 
C[C@@H]1N=C(c2c(F)cccc2F)c2c(ccc(Cl)c2Cl)-n2nc(C(=O)N3CC(F)C3)nc21 [Example 40, [(4S)-7,8-dichloro-6-(2,6-difluorophenyl)-4-methyl-4H-[1,2,4]triazolo[1,5-a][1,4]benzodiazepin-2-yl]-(3-fluoroazetidin-1-yl)methanone] | 8.13 | 8.13 | 6.17 | 91.4 | 1.96 | 9.05 | 89% | 1.89 |  |  |  | 
C[C@@H]1N=C(c2c(F)cccc2F)c2c(ccc(Cl)c2Cl)-n2nc(C(=O)NCCF)nc21 [Example 30, (4S)-7,8-dichloro-6-(2,6-difluorophenyl)-N-(2-fluoroethyl)-4-methyl-4H-[1,2,4]triazolo[1,5-a][1,4]benzodiazepine-2-carboxamide] | 8.14 | 8.14 | 6.18 | 91.5 | 1.96 | 8.86 | 78% | 1.78 |  |  |  | 
O=C(c1nc2n(n1)-c1ccc(Cl)c(Cl)c1C(c1c(F)cccc1F)=NC2)N1CC(O)C1 [Example 24, [7,8-dichloro-6-(2,6-difluorophenyl)-4H-[1,2,4]triazolo[1,5-a][1,4]benzodiazepin-2-yl]-(3-hydroxyazetidin-1-yl)methanone] | 8.51 | 8.50 | 6.56 | 86.7 | 1.94 | 9.35 | 88% | 1.88 |  |  |  | 
